Results published in ChEMBL document CHEMBL3045521, “Synthesis and evaluation of anti-inflammatory, analgesic, ulcerogenicity and nitric oxide-releasing studies of novel ibuprofen analogs as nonulcerogenic derivatives” (Med Chem Res, 2011).
≈ marks a conversion by molar mass, not a printed value.

Tests used:
[1] = Induction of nitric oxide release at 10^-4 M after 1 hr by Griess method relative to control; format: physicochemical; details: 100 µM
Mus musculus [2] = assay: Analgesic activity in Mus musculus (mouse) assessed as inhibition of acetic acid-induced writhing at 49.46 mg/kg, po measured after 5 min for 15 min relative to control; format: functional
Rattus norvegicus [3] = assay: Anti-inflammatory activity in Rattus norvegicus Wistar albino (rat) assessed as carrageenan-induced paw edema at 66.69 mg/kg, po administered 1 hr prior to carrageenan-challenge measured at 3 hr relative to control; format: functional
Aorta = assay: Vasorelaxant activity in normotensive Rattus norvegicus Wistar albino (rat) aorta assessed as inhibition of norepinephrine-induced contraction; format: functional, tissue-based
Rattus norvegicus [4] = assay: Anti-inflammatory activity in Rattus norvegicus Wistar albino (rat) assessed as carrageenan-induced paw edema at 66.69 mg/kg, po administered 1 hr prior to carrageenan-challenge measured at 1 hr relative to control; format: functional
Rattus norvegicus [5] = assay: Anti-inflammatory activity in Rattus norvegicus Wistar albino (rat) assessed as carrageenan-induced paw edema at 66.69 mg/kg, po administered 1 hr prior to carrageenan-challenge measured at 2 hr relative to control; format: functional
Mus musculus [6] = assay: Analgesic activity in Mus musculus (mouse) assessed as inhibition of acetic acid-induced writhing at 37.87 mg/kg, po measured after 5 min for 15 min relative to control; format: functional
Rattus norvegicus [7] = assay: Gastrointestinal toxicity against Rattus norvegicus Wistar albino (rat) assessed as disruption of mucosal layer at 61.2 mg/kg po by HE-staining based […] microscopic analysis; format: organism-based; parameters: dose 61.2 mg/kg, route oral; details: in vivo
Rattus norvegicus [8] = assay: Anti-inflammatory activity in Rattus norvegicus Wistar albino (rat) assessed as carrageenan-induced paw edema at 51.06 mg/kg, po administered 1 hr prior to carrageenan-challenge measured at 3 hr relative to control; format: functional
Rattus norvegicus [9] = assay: Anti-inflammatory activity in Rattus norvegicus Wistar albino (rat) assessed as carrageenan-induced paw edema at 51.06 mg/kg, po administered 1 hr prior to carrageenan-challenge measured at 1 hr relative to control; format: functional
Rattus norvegicus [10] = assay: Anti-inflammatory activity in Rattus norvegicus Wistar albino (rat) assessed as carrageenan-induced paw edema at 51.06 mg/kg, po administered 1 hr prior to carrageenan-challenge measured at 2 hr relative to control; format: functional
Rattus norvegicus [11] = assay: Gastrointestinal toxicity against Rattus norvegicus Wistar albino (rat) assessed as disruption of mucosal layer at 57.96 mg/kg po by HE-staining based […] microscopic analysis; format: organism-based; parameters: dose 57.96 mg/kg, route oral; details: in vivo
Rattus norvegicus [12] = assay: Anti-inflammatory activity in Rattus norvegicus Wistar albino (rat) assessed as carrageenan-induced paw edema at 48.34 mg/kg, po administered 1 hr prior to carrageenan-challenge measured at 3 hr relative to control; format: functional
Mus musculus [13] = assay: Analgesic activity in Mus musculus (mouse) assessed as inhibition of acetic acid-induced writhing at 35.85 mg/kg, po measured after 5 min for 15 min relative to control; format: functional
Rattus norvegicus [14] = assay: Anti-inflammatory activity in Rattus norvegicus Wistar albino (rat) assessed as carrageenan-induced paw edema at 48.34 mg/kg, po administered 1 hr prior to carrageenan-challenge measured at 2 hr relative to control; format: functional
Rattus norvegicus [15] = assay: Anti-inflammatory activity in Rattus norvegicus Wistar albino (rat) assessed as carrageenan-induced paw edema at 48.34 mg/kg, po administered 1 hr prior to carrageenan-challenge measured at 1 hr relative to control; format: functional
Rattus norvegicus [16] = assay: Anti-inflammatory activity in Rattus norvegicus Wistar albino (rat) assessed as carrageenan-induced paw edema at 20 mg/kg, po administered 1 hr prior to carrageenan-challenge measured at 3 hr relative to control; format: functional
Mus musculus [17] = assay: Analgesic activity in Mus musculus (mouse) assessed as inhibition of acetic acid-induced writhing at 15 mg/kg, po measured after 5 min for 15 min relative to control; format: functional
Rattus norvegicus [18] = assay: Anti-inflammatory activity in Rattus norvegicus Wistar albino (rat) assessed as carrageenan-induced paw edema at 20 mg/kg, po administered 1 hr prior to carrageenan-challenge measured at 1 hr relative to control; format: functional
Rattus norvegicus [19] = assay: Anti-inflammatory activity in Rattus norvegicus Wistar albino (rat) assessed as carrageenan-induced paw edema at 20 mg/kg, po administered 1 hr prior to carrageenan-challenge measured at 2 hr relative to control; format: functional
Rattus norvegicus [20] = assay: Anti-inflammatory activity in Rattus norvegicus Wistar albino (rat) assessed as carrageenan-induced paw edema at 49.7 mg/kg, po administered 1 hr prior to carrageenan-challenge measured at 1 hr relative to control; format: functional
Rattus norvegicus [21] = assay: Anti-inflammatory activity in Rattus norvegicus Wistar albino (rat) assessed as carrageenan-induced paw edema at 49.7 mg/kg, po administered 1 hr prior to carrageenan-challenge measured at 2 hr relative to control; format: functional
Mus musculus [22] = assay: Analgesic activity in Mus musculus (mouse) assessed as inhibition of acetic acid-induced writhing at 37.28 mg/kg, po measured after 5 min for 15 min relative to control; format: functional
Rattus norvegicus [23] = assay: Anti-inflammatory activity in Rattus norvegicus Wistar albino (rat) assessed as carrageenan-induced paw edema at 49.7 mg/kg, po administered 1 hr prior to carrageenan-challenge measured at 3 hr relative to control; format: functional
Rattus norvegicus [24] = assay: Gastrointestinal toxicity against Rattus norvegicus Wistar albino (rat) assessed as disruption of mucosal layer at 59.64 mg/kg po by HE-staining based […] microscopic analysis; format: organism-based; parameters: dose 59.64 mg/kg, route oral; details: in vivo
Rattus norvegicus [25] = assay: Gastrointestinal toxicity against Rattus norvegicus Wistar albino (rat) assessed as disruption of mucosal layer at 24 mg/kg po by HE-staining based […] microscopic analysis; format: organism-based; parameters: dose 24 mg/kg, route oral; details: in vivo
Rattus norvegicus [26] = assay: Anti-inflammatory activity in Rattus norvegicus Wistar albino (rat) assessed as carrageenan-induced paw edema at 63.98 mg/kg, po administered 1 hr prior to carrageenan-challenge measured at 3 hr relative to control; format: functional
Rattus norvegicus [27] = assay: Anti-inflammatory activity in Rattus norvegicus Wistar albino (rat) assessed as carrageenan-induced paw edema at 63.98 mg/kg, po administered 1 hr prior to carrageenan-challenge measured at 1 hr relative to control; format: functional
Mus musculus [28] = assay: Analgesic activity in Mus musculus (mouse) assessed as inhibition of acetic acid-induced writhing at 47.98 mg/kg, po measured after 5 min for 15 min relative to control; format: functional
Rattus norvegicus [29] = assay: Anti-inflammatory activity in Rattus norvegicus Wistar albino (rat) assessed as carrageenan-induced paw edema at 63.98 mg/kg, po administered 1 hr prior to carrageenan-challenge measured at 2 hr relative to control; format: functional

SMILES: CC(C)Cc1ccc(C(C)c2n[nH]c(=S)n2-c2ccc(C(=O)NNC(=O)CCO[N+](=O)[O-])c(C(=O)NNC(=O)CCO[N+](=O)[O-])c2)cc1 (stereo not given)
- Activity [1]: 0.57%
- inhibition in vivo at 49.46 mg/kg (Mus musculus [2]): 48.6%
- inhibition in vivo at 66.69 mg/kg (Rattus norvegicus [3]): 31.9%
- EC50 (Aorta): 34.9 mg/L (≈ 50.7 µM)
- inhibition in vivo at 66.69 mg/kg (Rattus norvegicus [4]): 27.9%
- inhibition in vivo at 66.69 mg/kg (Rattus norvegicus [5]): 29.9%

SMILES: CC(C)Cc1ccc(C(C)c2n[nH]c(=S)n2-c2ccccc2CC(=O)NNC(=O)CCO[N+](=O)[O-])cc1 (stereo not given)
- inhibition in vivo at 37.87 mg/kg (Mus musculus [6]): 56.1%
- Activity [1]: 0.32%
- Activity (Rattus norvegicus [7]): Non-toxic
- inhibition in vivo at 51.06 mg/kg (Rattus norvegicus [8]): 61.8%
- inhibition in vivo at 51.06 mg/kg (Rattus norvegicus [9]): 51.5%
- inhibition in vivo at 51.06 mg/kg (Rattus norvegicus [10]): 56.5%
- EC50 (Aorta): 58.6 mg/L (≈ 111 µM)

SMILES: CC(C)Cc1ccc(C(C)c2n[nH]c(=S)n2-c2ccc(C(=O)NNC(=O)CO[N+](=O)[O-])cc2)cc1 (stereo not given)
- Activity [1]: 0.48%
- Activity (Rattus norvegicus [11]): Non-toxic
- inhibition in vivo at 48.34 mg/kg (Rattus norvegicus [12]): 61.2%
- inhibition in vivo at 35.85 mg/kg (Mus musculus [13]): 63.6%
- inhibition in vivo at 48.34 mg/kg (Rattus norvegicus [14]): 56.5%
- inhibition in vivo at 48.34 mg/kg (Rattus norvegicus [15]): 52.7%
- EC50 (Aorta): 42.8 mg/L (≈ 85.8 µM)

SMILES: CC(C)Cc1ccc(C(C)C(=O)O)cc1 (stereo not given) [IBUPROFEN]
- inhibition in vivo at 20 mg/kg (Rattus norvegicus [16]): 62.8%
- inhibition in vivo at 15 mg/kg (Mus musculus [17]): 62.4%
- inhibition in vivo at 20 mg/kg (Rattus norvegicus [18]): 53.9%
- inhibition in vivo at 20 mg/kg (Rattus norvegicus [19]): 58.2%

SMILES: CC(C)Cc1ccc(C(C)c2n[nH]c(=S)n2-c2ccc(C(=O)NNC(=O)CCO[N+](=O)[O-])cc2)cc1 (stereo not given)
- inhibition in vivo at 49.7 mg/kg (Rattus norvegicus [20]): 52.1%
- Activity [1]: 0.39%
- inhibition in vivo at 49.7 mg/kg (Rattus norvegicus [21]): 57.1%
- inhibition in vivo at 37.28 mg/kg (Mus musculus [22]): 64.8%
- inhibition in vivo at 49.7 mg/kg (Rattus norvegicus [23]): 61.8%
- Activity (Rattus norvegicus [24]): Non-toxic
- EC50 (Aorta): 30.5 mg/L (≈ 59.5 µM)

SMILES: CC(C)Cc1ccc(C(C)c2n[nH]c(=S)n2-c2ccccc2CC(=O)NNC(=O)CO[N+](=O)[O-])cc1 (stereo not given)
- inhibition in vivo at 49.7 mg/kg (Rattus norvegicus [20]): 54.5%
- Activity [1]: 0.35%
- inhibition in vivo at 49.7 mg/kg (Rattus norvegicus [21]): 58.8%
- inhibition in vivo at 37.28 mg/kg (Mus musculus [22]): 59%
- inhibition in vivo at 49.7 mg/kg (Rattus norvegicus [23]): 62.8%
- Activity (Rattus norvegicus [24]): Non-toxic
- EC50 (Aorta): 55.3 mg/L (≈ 108 µM)

SMILES: O=C(O)Cc1ccccc1Nc1c(Cl)cccc1Cl [DICLOFENAC]
- Activity (Rattus norvegicus [25]): Toxic

SMILES: CC(C)Cc1ccc(C(C)c2n[nH]c(=S)n2-c2ccc(C(=O)NNC(=O)CO[N+](=O)[O-])c(C(=O)NNC(=O)CO[N+](=O)[O-])c2)cc1 (stereo not given)
- inhibition in vivo at 63.98 mg/kg (Rattus norvegicus [26]): 41.9%
- Activity [1]: 0.42%
- inhibition in vivo at 63.98 mg/kg (Rattus norvegicus [27]): 38.8%
- inhibition in vivo at 47.98 mg/kg (Mus musculus [28]): 52.6%
- EC50 (Aorta): 38.7 mg/L (≈ 58.6 µM)
- inhibition in vivo at 63.98 mg/kg (Rattus norvegicus [29]): 40.1%
